Results as given in PubChem BioAssay AID1053170 (The Scripps Research Institute Molecular Screening Center, 2014).
Activity calls are given as the source filed them. The rule behind the calls is not given here.

molecular target: E3 ubiquitin-protein ligase UHRF1 (Homo sapiens) (UniProt Q96T88); test: UHRF1 methylated DNA binding inhibitors, late-stage follow-up, counter-screen for MBD2 inhibitor project, biochemical, TR-FRET, human UHRF1, dose response (AID 1053170)
Sequence (Q96T88 whole entry, looked up): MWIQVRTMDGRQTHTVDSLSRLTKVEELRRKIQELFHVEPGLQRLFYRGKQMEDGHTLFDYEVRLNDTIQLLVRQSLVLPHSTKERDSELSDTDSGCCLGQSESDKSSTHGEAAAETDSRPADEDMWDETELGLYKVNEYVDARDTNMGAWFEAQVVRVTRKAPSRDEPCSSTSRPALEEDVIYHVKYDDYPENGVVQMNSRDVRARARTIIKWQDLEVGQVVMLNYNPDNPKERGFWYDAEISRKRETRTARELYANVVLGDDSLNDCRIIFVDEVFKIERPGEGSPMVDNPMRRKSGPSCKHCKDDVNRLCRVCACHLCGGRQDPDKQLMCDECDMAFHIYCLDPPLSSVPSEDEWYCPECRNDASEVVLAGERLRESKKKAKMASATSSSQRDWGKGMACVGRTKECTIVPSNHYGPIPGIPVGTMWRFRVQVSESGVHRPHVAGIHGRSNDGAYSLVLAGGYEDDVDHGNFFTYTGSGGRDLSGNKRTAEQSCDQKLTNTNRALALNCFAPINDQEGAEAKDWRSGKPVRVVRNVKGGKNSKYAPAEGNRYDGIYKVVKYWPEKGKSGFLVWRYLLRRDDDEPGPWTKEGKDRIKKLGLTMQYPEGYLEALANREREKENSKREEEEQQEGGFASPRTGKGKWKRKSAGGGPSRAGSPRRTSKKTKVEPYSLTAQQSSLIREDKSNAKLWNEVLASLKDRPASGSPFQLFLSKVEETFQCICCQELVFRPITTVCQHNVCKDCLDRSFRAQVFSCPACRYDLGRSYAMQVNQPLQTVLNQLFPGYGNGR

Structure (SMILES)	IC50
Cc1ccc(Cl)cc1N1CCN(S(=O)(=O)c2ccc3c(c2)NC(=O)C(C)C(=O)N3)CC1 (configuration not stated)	> 43.8 µM (inactive)
COc1ccc(NC(=O)COC(=O)CCc2ccc(S(=O)(=O)N3CCOCC3)cc2)cc1Cl	> 43.8 µM (inactive)
N=C1C(c2nc3ccccc3s2)=C(O)CN1NC(=O)c1c[nH]c2ccccc12	> 43.8 µM (inactive)
COc1ccccc1C(=O)COC(=O)c1ccc(N(C)C)cc1	> 43.8 µM (inactive)
Cc1cc(C)n2nc(CC(=O)NCc3ccc(F)cc3)nc2n1	> 43.8 µM (inactive)
CCCCn1c(NC(C)CC)nc2c1c(=O)[nH]c(=O)n2C (configuration not stated)	> 43.8 µM (inactive)
CC(C)C(=O)Nc1nnc(SCC(=O)NC2CCCC2)s1	> 43.8 µM (inactive)
CC(C)n1nc(C(=O)Nc2nc3ccccc3[nH]2)c2ccccc2c1=O	> 43.8 µM (inactive)
COc1ccc2c(=O)c3c(=O)n(-c4ccccc4)c(-c4ccc(C)cc4)nc3oc2c1	> 43.8 µM (inactive)
O=C(CSc1nc(-c2ccccc2)c(-c2ccccc2)o1)N1CCOCC1	> 43.8 µM (inactive)
CCOC(=O)c1oc2ccc(CNC(C)(C)C)c(Cl)c2c1C	> 43.8 µM (inactive)
CN(C)CCNc1ccc(CO)c2sc3ccc(O)cc3c(=O)c12	> 43.8 µM (inactive)
Clc1ccc2c(c1)-c1ccccc1C1=NCCN12	inactive
CC(=O)N(c1ccccc1)c1nc(/C=C/C(=O)Nc2c(C)cc(C)cc2C)cs1	> 43.8 µM (inactive)
O=C(CSc1ccccn1)Nc1ccc(N2CCOCC2)cc1	> 43.8 µM (inactive)
c1ccc2c(c1)C1=NCCN1c1ccccc1-2	inactive

Structure (SMILES)	IC50
CCOC(=O)c1ccc(NC(=O)COc2ccc(CNCCO)cc2OCC)cc1	> 43.8 µM (inactive)
CCc1cccc(OCC(=O)Nc2ccc(S(=O)(=O)Nc3ccccn3)cc2)c1	> 43.8 µM (inactive)
COc1ccc(NC(=O)CN2CCN(c3ccccc3C)CC2)cc1	> 43.8 µM (inactive)
CSc1ccc(OC2CCCCC2NS(=O)(=O)c2ccc(Cl)cc2)cc1 (configuration not stated)	> 43.8 µM (inactive)
CCOc1ccc(S(=O)(=O)N2CCCC(C(=O)NCC3CCCO3)C2)cc1Cl (configuration not stated)	> 43.8 µM (inactive)
Cc1ccc(NCCN(C)C)c2c(=O)c3cc(O)ccc3sc12	inactive
COc1cccc2nc3c(C(=O)NCCN(C)C)cccc3cc12	> 43.8 µM (inactive)
CCOC(=O)c1cnc2c(ccc3ccccc32)c1NCCCN(C)C	inactive
CN(C)CCNC(=O)c1cccc2[nH]c(-c3ccncc3)nc12	inactive
Cc1cc2[nH]c3c4ccccc4nc(C)c3c2cc1C	inactive
COc1ccc(NC(=O)Cn2cc(C(C)=O)c3ccccc32)cc1	> 43.8 µM (inactive)
CSc1ccc(OC2CCCCC2NS(=O)(=O)c2ccccc2)cc1 (configuration not stated)	> 43.8 µM (inactive)
COc1ccc(C(=O)N2CCC(C(=O)Nc3ccc(C)cc3)CC2)cc1	> 43.8 µM (inactive)
Cc1c2cnn(CC(=O)Nc3c(F)c(F)cc(F)c3F)c(=O)c2c(C)n1Cc1ccccc1F	inactive
COc1ccc(C(=O)NCCN(C)C)c2nc3ccccc3cc12	inactive
O=C(Nc1ccc(OCc2ccccc2)cc1)c1ccccc1	> 43.8 µM (inactive)
